Laboratory results: BindingDB's records for doi:10.1016/j.bmcl.2017.04.030 (Takeda Pharmaceutical, 2017)
Numbered stars: 1 amine (or outer) side, 2 acyl side, 3 side chain; on linkers, the order of the positions; unused ones are H or OH. Bridge positions count the residues as written; N and C are the ends. Square brackets hold non-standard residues; d marks the D form. Peptide text beside a SMILES is read from it. tBuAla = CC(C)(C)C[C@H](N)C(=O)O; X1 = O=C(CCC[*:2])[*:1]

Target: T1, Oxytocin receptor (Homo sapiens, UniProt P30559)
T1 sequence (P30559 whole entry): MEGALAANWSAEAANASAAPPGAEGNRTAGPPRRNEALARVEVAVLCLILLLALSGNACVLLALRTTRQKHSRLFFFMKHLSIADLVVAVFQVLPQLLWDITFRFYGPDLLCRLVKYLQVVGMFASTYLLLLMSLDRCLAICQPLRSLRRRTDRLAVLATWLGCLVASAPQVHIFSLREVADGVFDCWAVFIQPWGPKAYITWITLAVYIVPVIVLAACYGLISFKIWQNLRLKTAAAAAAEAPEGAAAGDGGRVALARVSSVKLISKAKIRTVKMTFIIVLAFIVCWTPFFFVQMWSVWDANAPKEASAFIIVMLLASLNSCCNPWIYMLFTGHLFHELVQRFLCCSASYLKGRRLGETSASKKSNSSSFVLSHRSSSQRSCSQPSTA
Experiment: Agonist activity at human OTR expressed in CHO cells assessed as calcium mobilization measured after 30 mins by Fluo-4-AM dye based FLIPR assay

Compound	EC50
CC[C@H](C)[C@@H]1NC(=O)[C@H](Cc2ccc(O)cc2)NC(=O)CCCSC[C@@H](C(=O)N2CCC[C@H]2C(=O)N[C@@H](CC(C)(C)C)C(=O)NCC(N)=O)NC(=O)[C@H](CC(N)=O)NC(=O)[C@H](CCC(N)=O)NC1=O (YIQNCP[tBuAla]G-NH2; linker N-5 via X1)	7 pM
CC[C@H](C)[C@@H]1NC(=O)[C@H](Cc2ccc(O)cc2)NC(=O)CCSSC[C@@H](C(=O)N2CCC[C@H]2C(=O)N[C@@H](CC(C)C)C(=O)NNC(N)=O)NC(=O)[C@H](CC(N)=O)NC(=O)[C@H](CCC(N)=O)NC1=O	8 pM
